Values joined by “and” are separate entries in the source; they are usually repeats but may differ in a detail not shown here. Identical values can stand only once.
Tests used:
[1] = test system: model of peripheral mononeuropathy (Bennett model) in rats; assay: Chronic constriction injury (Bennett model) of peripheral mononeuropathy, paw pressure test; assay type: in vivo
[2] = test system: model of TNBS-induced chronic colonic hypersensitivity in rats; assay: TNBS-induced chronic colonic hypersensitivity, colorectal balloon distension threshold; conditions: for % antihypersensitivity activity / Colonic distension threshold (mmHg): TNBS 50 mg/kg
[3] = test system: patients with nociceptive or neuropathic pain; assay: Patient examples 1-5: oral AV1066, patient-reported pain control; assay type: in vivo, human; conditions: Example 1, bone fracture pain (nociceptive), oral 5 mg/kg/day, days 3, 7, 16, 28
Description: A patient or subject (the terms are used interchangeably) presents with a fractured collar bone arising from a bicycling accident. They are complaining of significant shoulder pain. The patient's pain is classified according to the
International Association for the Study of Pain as nociceptive. They are orally administered AV1066 5 mg/kg/day. They are examined at days 3, 7, 16, and 28. At each visit the patient is assessed for pain control compared with the previous visit.
A patient presents with a second […]. They are complaining of significant pain. The patient's pain is classified according to the International Association for the Study of Pain as nociceptive. They are orally administered the phosphate salt of AV1066 10 mg/kg daily in two doses. They are examined at 12 hours, and daily thereafter for 4 days. At each visit the patient is assessed for pain control compared with the previous visit.
A patient presents with a benign tumor mass compressing their left shoulder causing movement pain. The patient's pain is classified according to the International Association for the Study of Pain as nociceptive. They are orally administered the sodium salt of AV1066 30 mg/kg/day in two doses. They are examined daily thereafter at 3, 7, and 28 days. At each visit the patient is assessed for pain control compared with the previous visit. […]

[4] = test system: model of peripheral mononeuropathy (Bennett model) in rats; conditions: typical values given for comparison; cited from earlier work
[5] = injured paw, TO (pre-drug), 10 mg/kg p.o.
[6] = injured paw, TO (pre-drug), 30 mg/kg p.o.
[7] = injured paw, TO (pre-drug), 100 mg/kg p.o.
[8] = injured paw, TO + 30 min, 10 mg/kg p.o.
[9] = injured paw, TO + 30 min, 30 mg/kg p.o.
[10] = injured paw, TO + 30 min, 100 mg/kg p.o.
[11] = injured paw, TO + 60 min, 10 mg/kg p.o.
[12] = injured paw, TO + 60 min, 30 mg/kg p.o.
[13] = injured paw, TO + 60 min, 100 mg/kg p.o.
[14] = injured paw, TO + 120 min, 10 mg/kg p.o.
[15] = injured paw, TO + 120 min, 30 mg/kg p.o.
[16] = injured paw, TO + 120 min, 100 mg/kg p.o.
[17] = injured paw, TO + 180 min, 10 mg/kg p.o.
[18] = injured paw, TO + 180 min, 30 mg/kg p.o.
[19] = injured paw, TO + 180 min, 100 mg/kg p.o.
[20] = single administration 10, 30, 100 mg/kg PO
[21] = injured paw, TO (pre-drug), 3 mg/kg s.c.
[22] = injured paw, TO + 30 min, 3 mg/kg s.c.
[23] = injured paw, TO + 60 min, 3 mg/kg s.c.
[24] = injured paw, TO + 120 min, 3 mg/kg s.c.
[25] = injured paw, TO + 180 min, 3 mg/kg s.c.

## CN1CCN(CCCc2ccc(C(c3ccccc3)C34CC5CC(CC(C5)C3)C4)cc2)CC1 [AV1066, 1-(3-4(((1R,3S,5S)-adamantan-1-yl)(phenyl)methyl)propyl)-4-methylpiperazine]
[1]; 30 mg/kg dose, T=+30 minutes
  difference in the nociceptive threshold vs. vehicle: 116 g
[1]; 30 mg/kg dose, T=+30 minutes, vs vehicle
  anti-hyperalgesic effect: 59%
[1]; CCI study, 10, 30, 100 mg/kg PO
  untoward effects: No untoward effects
[1]; control paw, TO, 10 mg/kg p.o.
  Nociceptive threshold: 366 ± 11.9 g
[1]; control paw, TO, 30 mg/kg p.o.
  Nociceptive threshold: 352 ± 15.8 g
[1]; control paw, TO, 100 mg/kg p.o.
  Nociceptive threshold: 354 ± 9.9 g
[1]; [5]
  % variation vs control paw: −54%
  % variation vs vehicle-treated group: −15%
  Nociceptive threshold: 170 ± 11.6 g
[1]; [6]
  % variation vs control paw: −45%
  % variation vs vehicle-treated group: −4%
  Nociceptive threshold: 192 ± 8.5 g
[1]; [7]
  % variation vs control paw: −49%
  % variation vs vehicle-treated group: −9%
  Nociceptive threshold: 182 ± 9.6 g
[1]; [8]
  % variation vs control paw: −32%
  % variation vs pre-drug threshold: 38%
  % variation vs vehicle-treated group: 19%
  Nociceptive threshold: 234 ± 11.2 g
[1]; [9]
  % variation vs control paw: −19%
  % variation vs pre-drug threshold: 63%
  % variation vs vehicle-treated group: 59%
[1]; injured paw, TO + 30 min, 30 mg/kg p.o., 30 mg/kg
  Nociceptive threshold: 312 g and 312 ± 15.5 g
[1]; [10]
  % variation vs control paw: −20%
  % variation vs pre-drug threshold: 64%
  % variation vs vehicle-treated group: 52%
  Nociceptive threshold: 298 ± 21.4 g
[1]; [11]
  % variation vs control paw: −29%
  % variation vs pre-drug threshold: 39%
  % variation vs vehicle-treated group: 6%
  Nociceptive threshold: 236 ± 11.5 g
[1]; [12]
  % variation vs control paw: −16%
  % variation vs pre-drug threshold: 43%
  % variation vs vehicle-treated group: 23%
  Nociceptive threshold: 274 ± 14.3 g
[1]; [13]
  % variation vs control paw: −11%
  % variation vs pre-drug threshold: 60%
  % variation vs vehicle-treated group: 32%
  Nociceptive threshold: 292 ± 17.2 g
[1]; [14]
  % variation vs control paw: −30%
  % variation vs pm-drug threshold: 27%
  % variation vs vehicle-treated group: 6%
  Nociceptive threshold: 216 ± 12.6 g
[1]; [15]
  % variation vs control paw: −21%
  % variation vs pm-drug threshold: 41%
  % variation vs vehicle-treated group: 32%
  Nociceptive threshold: 270 ± 11.6 g
[1]; [16]
  % variation vs control paw: −23%
  % variation vs pm-drug threshold: 44%
  % variation vs vehicle-treated group: 28%
  Nociceptive threshold: 262 ± 12.5 g
[1]; [17]
  % variation vs control paw: −23%
  % variation vs pre-drug threshold: 38%
  % variation vs vehicle-treated group: 9%
  Nociceptive threshold: 234 ± 15.5 g
[1]; [18]
  % variation vs control paw: −36%
  % variation vs pre-drug threshold: 1%
  % variation vs vehicle-treated group: −9%
  Nociceptive threshold: 194 ± 13.0 g
[1]; [19]
  % variation vs control paw: −27%
  % variation vs pre-drug threshold: 16%
  % variation vs vehicle-treated group: −1%
  Nociceptive threshold: 212 ± 15.8 g
[1]; [20]
  effect on nociceptive (pain) threshold of the affected paw, in words: dose-dependently restores the pain threshold lowered by chronic constriction injury
  time at which efficacy was apparent post-dose: 30 min
  time for which efficacy remained significant: 2 h
[1]; whatever the dose
  max effect: 59%
[2]; 10 mg/kg p.o.
  % antihypersensitivity activity: 26%
  Colonic distension threshold (mmHg): 30.3 ± 1.3 mmHg
[2]; 30 mg/kg p.o.
  % antihypersensitivity activity: 71%
  Colonic distension threshold (mmHg): 36.4 ± 1.3 mmHg
[2]; TNBS study, single PO administration
  untoward effects: No untoward effects
[3]
  patient-reported pain control: tolerable and improved at each visit

## CN1CC[C@]23c4c5ccc(O)c4O[C@H]2[C@@H](O)C=C[C@H]3[C@H]1C5.Cl [Morphine HCl, reference compound]
[1]; control paw, TO, 3 mg/kg s.c.
  Nociceptive threshold: 349 ± 11.1 g
[1]; [21]
  % variation vs control paw: −47%
  % variation vs vehicle-treated group: −8%
  Nociceptive threshold: 184 ± 11.9 g
[1]; [22]
  % variation vs control paw: −11%
  % variation vs pre-drug threshold: 212%
  % variation vs vehicle-treated group: 194%
  Nociceptive threshold: 576 ± 46.8 g
[1]; [23]
  % variation vs control paw: −6%
  % variation vs pre-drug threshold: 212%
  % variation vs vehicle-treated group: 159%
  Nociceptive threshold: 576 ± 28.8 g
[1]; [24]
  % variation vs control paw: −11%
  % variation vs pm-drug threshold: 110%
  % variation vs vehicle-treated group: 90%
  Nociceptive threshold: 387 ± 40.4 g
[1]; [25]
  % variation vs control paw: −19%
  % variation vs pre-drug threshold: 31%
  % variation vs vehicle-treated group: 13%
  Nociceptive threshold: 242 ± 19.0 g

## NCC1(CC(=O)O)CCCCC1 [gabapentin]
[4]
  anti-hyperalgesic effect, typical range of non-opioid treatments: 40-50%

Source: US10933062B2, “Analgesic therapeutic and method, 1-(3-4(((1 R,3S,5S)-adamantan-1-yl)(phenyl)methyl)propyl)-4-methylpiperazine and salts thereof” (ANAVEX LIFE SCIENCES CORP., priority 2016, dated 2021)
